From PubChem BioAssay AID850 (SRMLSC, 2007) come the findings set out here.

A short description of experiment [1]: concentration-response yeast growth inhibition under permissive conditions, counter-assay for yeast lifespan-shortening chemical project (AID 850).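 Further: growth read as optical density after one day of incubation.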 To be noted: Saccharomyces cerevisiae growth inhibition, permissive control, measured here: maximum growth inhibition, stronger effect = higher value.
The subject of experiment [2] is Saccharomyces cerevisiae growth inhibition, permissive control. The description is as above.

The source made the active and inactive calls. How the calls were made is not given here. Some results are limits rather than exact numbers.

In experiment [1] (at 50 µM), `Cc1nn(-c2ccc(F)cc2)c2sc(C(=O)O)cc12` registered an inhibition of 60.6%. The IC50 in experiment [2] was 49.1 µM.

As to `Cc1ccc(NC(=S)Nc2ccc(Cl)c(Cl)c2)c(OC(F)F)c1`, the inhibition in experiment [1] (at 50 µM) came to 76%. The IC50 in experiment [2] is 24.8 µM.

Regarding `Cc1cccc(OCCn2cc(/C=N/NC(=O)c3ccncc3)c3ccccc32)c1`, the inhibition in experiment [1] (at 0.781 µM) was 10%. Moreover, the IC50 in experiment [2] is > 100 µM (inactive).

In experiment [1] (at 50 µM), `Cc1cccc(-c2nnc3sc(-c4ccccc4C)nn23)c1` returned an inhibition of 29.1%. The IC50 in experiment [2] is > 100 µM (inactive).

In the case of `Cc1ccc(-c2cc(-c3ccccc3Cl)[nH]n2)c(O)c1`, the inhibition in experiment [1] (at 0.781 µM) is 16.4%. Also, in experiment [2], the IC50 was > 100 µM (inactive).

Take `CC1CCCC2(C1)NC(=S)c1c(sc3c1CCCC3)N2` (stereo not given): the inhibition in experiment [1] (at 0.781 µM) amounted to 10.2%. In addition, the IC50 in experiment [2] was > 100 µM (inactive).

In turn, `CCn1c2ccc(C)cc2c2nc3cc(C(=O)O)ccc3nc21` had an inhibition in experiment [1] (at 50 µM) of 75%. In addition, in experiment [2], the concentration for half-maximal inhibition (IC50) was 23.9 µM.

In turn, `CC(=O)N1CCN(c2ccc(OC[C@H]3CO[C@](Cn4ccnc4)(c4ccc(Cl)cc4Cl)O3)cc2)CC1` registered an inhibition in experiment [1] (at 50 µM) of 96%. For the same compound, the IC50 in experiment [2] was 4.25 µM.

Consider `N=c1n(CCN2CCOCC2)c2ccccc2n1CC(=O)c1ccc(Cl)c(Cl)c1`, for which the inhibition in experiment [1] (at 50 µM) was determined as 61.4%. Moreover, the IC50 in experiment [2] was 35.4 µM.

As to `CC1=NNC(=O)/C1=C\c1cn(-c2ccccc2)nc1-c1cccs1`, the inhibition in experiment [1] (at 50 µM) stood at 98%. In addition, the IC50 in experiment [2] was 8.18 µM.

As to `O=C(Nc1cc(C(F)(F)F)ccc1Cl)C(Sc1cccc[n+]1[O-])c1ccccc1` (stereo not given), in experiment [1] (at 50 µM), the inhibition was determined as 99.8%. Also, the IC50 in experiment [2] was 6.31 µM.

`O=C1c2cccc3c(Cl)ccc(c23)C(=O)N1O` had an inhibition in experiment [1] (at 50 µM) of 61.6%. In addition, the IC50 in experiment [2] is 39.6 µM.

Regarding `COc1cc(Br)cc(/C=N/c2ncn[nH]2)c1O`, in experiment [1] (at 50 µM), the inhibition amounted to 97.8%. For the same compound, in experiment [2], the IC50 was 18.3 µM.

Regarding `COc1ccc(Nc2cnn(-c3nc4ccccc4s3)c(=O)c2Cl)cc1`, the inhibition in experiment [1] (at 50 µM) was 60.8%. Also, the IC50 in experiment [2] was 44.2 µM.

In the case of `O=c1cc(-c2ccccc2)[nH]n1-c1nc2ccccc2[nH]1`, the inhibition in experiment [1] (at 50 µM) stood at 97.3%. For the same compound, the half-inhibitory concentration (IC50) in experiment [2] is 13.3 µM.

As to `COC(=O)c1ccc(CSc2ccc3nnc(-c4cccc(F)c4)n3n2)o1`, the inhibition in experiment [1] (at 6.25 µM) is 17.7%. In experiment [2], the IC50 was > 100 µM (inactive).

The compound `CC1=C/C(=N\OS(=O)(=O)c2ccccc2)C(C)=CC1=O` returned an inhibition in experiment [1] (at 12.5 µM) of 100%. Also, the IC50 in experiment [2] was 0.614 µM.

In experiment [1] (at 6.25 µM), `Cc1ccc(-c2nc(N)sc2-c2ccccc2)cc1C` yielded an inhibition of 16%. Besides, the IC50 in experiment [2] was > 100 µM (inactive).

On to `Nc1c(C(=O)NCCc2ccccc2)c2nc3ccccc3nc2n1CCN1CCOCC1`, for which the inhibition in experiment [1] (at 50 µM) came to 99.8%. The 50% inhibitory concentration (IC50) in experiment [2] was 42.4 µM.

Regarding `CCSc1nnc(NC(=O)c2ccccn2)s1`, the inhibition in experiment [1] (at 50 µM) came out at 97.8%. The IC50 in experiment [2] was 12.7 µM.

Regarding `Cc1ccc(-c2nnc3ccc(SC(C)C(=O)O)nn23)cc1` (stereo not given), the inhibition in experiment [1] (at 6.25 µM) worked out at 10.5%. The IC50 in experiment [2] is > 100 µM (inactive).

In turn, `O=C(O)c1ccccc1C(=O)NNc1ccc(Cl)cc1` yielded an inhibition in experiment [1] (at 50 µM) of 96.5%. Moreover, the IC50 in experiment [2] was 7.11 µM.

Compound `CCN1/C(=C/c2ccc3cccc(C)c3[n+]2CC)Sc2ccccc21` registered an inhibition in experiment [1] (at 50 µM) of 99.4%. In addition, the IC50 in experiment [2] was 8.03 µM.

For the compound `CCSc1nc(N)nc(-c2cccs2)c1C#N`, the inhibition in experiment [1] (at 50 µM) was determined as 70.4%. For the same compound, the IC50 in experiment [2] is 35.2 µM.

`Cc1ccc(-c2nn(C(C)(C)C)c3ncnc(N)c23)cc1` returned an inhibition in experiment [1] (at 50 µM) of 84.2%. Moreover, in experiment [2], the IC50 was 0.458 µM.

In experiment [1] (at 50 µM), `OC(COc1ccc2ccccc2c1Br)Cn1cnc(-c2ccccc2)c1` (stereo not given) yielded an inhibition of 20.9%. Besides, the IC50 in experiment [2] was > 100 µM (inactive).

Consider `CCCCN(CCCC)C(=S)N/N=C/c1c(C)[nH]n(-c2ccccc2)c1=O`, for which the inhibition in experiment [1] (at 0.781 µM) stood at 19.7%. Also, the IC50 in experiment [2] was > 100 µM (inactive).

For `Cc1ccc(N2NC(C)(c3cccs3)NC2=S)cc1` (stereo not given), in experiment [1] (at 25 µM), the inhibition was 94.1%. In experiment [2], the IC50 is 12.1 µM.

Take `Cc1cc(O)c(/C=N/Nc2ccccc2Cl)c(=O)o1`: the inhibition in experiment [1] (at 50 µM) amounted to 95.1%. Moreover, in experiment [2], the IC50 was 22.3 µM.

`NNC(=O)c1ccc(COc2cccc3ccccc23)cc1`: the inhibition in experiment [1] (at 50 µM) came out at 94.7%. The IC50 in experiment [2] was 20 µM.

In experiment [1] (at 0.391 µM), `S=C(Nc1ccc(Oc2ccccc2)cc1)NC1CCCCCC1` came in with an inhibition of 19.9%. Also, in experiment [2], the IC50 was > 100 µM (inactive).

In experiment [1] (at 50 µM), `O=C(ONC1=NCCCCC1)c1ccc(Cl)cc1` showed an inhibition of 99.8%. The IC50 in experiment [2] was 7.02 µM.

In the case of `Oc1c(Br)cc(Br)cc1/C=N/c1nc2c(s1)CCCC2`, the inhibition in experiment [1] (at 50 µM) was found to be 98.5%. The IC50 in experiment [2] is 5.27 µM.

Regarding `CCCC1COC(Cn2cncn2)(c2ccc(C)cc2)O1` (stereo not given), the inhibition in experiment [1] (at 25 µM) came out at 94.7%. Besides, the IC50 in experiment [2] is 1.83 µM.

Regarding `Cc1ncc(CC(=O)n2cc(C(=O)c3cc(Cl)ccc3O)cn2)s1`, the inhibition in experiment [1] (at 50 µM) came out at 100%. In experiment [2], the half-maximal inhibitory concentration (IC50) was 5.42 µM.

As usually defined, the inhibition is the change of the read-out against control, counted positive when it falls. The term IC50 denotes the concentration needed to halve the response being measured.
